For six molecules, inhibition results are on record in ChEMBL document CHEMBL1151500, “Inhibition of calpain by peptidyl heterocycles” (Bioorg Med Chem Lett, 1996).

This assay has as its target T1, Calpain-1 catalytic subunit (Homo sapiens) (UniProt P07384).
T1 sequence (whole entry): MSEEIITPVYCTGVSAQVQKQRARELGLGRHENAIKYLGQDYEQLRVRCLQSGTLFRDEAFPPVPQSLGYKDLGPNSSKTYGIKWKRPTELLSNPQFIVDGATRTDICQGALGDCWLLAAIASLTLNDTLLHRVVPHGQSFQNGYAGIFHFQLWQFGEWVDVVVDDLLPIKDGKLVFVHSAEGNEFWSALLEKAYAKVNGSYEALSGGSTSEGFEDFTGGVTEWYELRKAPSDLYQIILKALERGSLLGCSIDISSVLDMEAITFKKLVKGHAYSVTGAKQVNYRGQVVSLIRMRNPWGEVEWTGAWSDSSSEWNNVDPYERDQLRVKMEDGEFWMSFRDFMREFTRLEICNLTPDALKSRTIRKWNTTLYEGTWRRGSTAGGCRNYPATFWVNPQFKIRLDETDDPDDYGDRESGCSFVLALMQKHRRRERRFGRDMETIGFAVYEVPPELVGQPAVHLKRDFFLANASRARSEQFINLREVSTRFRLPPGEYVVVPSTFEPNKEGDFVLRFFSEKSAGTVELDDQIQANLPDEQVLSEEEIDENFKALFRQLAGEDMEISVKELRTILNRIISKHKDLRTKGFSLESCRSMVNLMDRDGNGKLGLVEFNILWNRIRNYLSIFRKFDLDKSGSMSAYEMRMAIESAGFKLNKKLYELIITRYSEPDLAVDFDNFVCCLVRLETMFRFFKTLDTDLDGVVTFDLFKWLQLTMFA
In words: Inhibitory activity against human recombinant Calpain 1 at a concentration of 10 uM.
For `CC(C)C[C@H](NC(=O)OCc1ccccc1)C(=O)N[C@@H](CC(C)C)C(=O)c1ncc[nH]1`, the inhibition worked out at 0%.
In the case of `CC(C)C[C@H](NC(=O)OC(C)(C)C)C(=O)N[C@@H](CC(C)C)C(=O)c1ncc[nH]1`, the inhibition stood at 77%.
Consider `CC(C)C[C@H](NC(=O)OCc1ccccc1)C(=O)N[C@@H](CC(C)C)C(=O)C1N=NN=N1`, for which the inhibition turned out to be 11%.
In the case of `CC(C)C[C@H](NC(=O)OCc1ccccc1)C(=O)N[C@@H](CC(C)C)C(=O)c1nccn1COCC[Si](C)(C)C`, the inhibition came out at 0%.
On to `CC(C)C[C@H](NC(=O)OCc1ccccc1)C(=O)N[C@@H](CC(C)C)C(=O)N[C@@H](Cc1ccccc1)C(=O)c1nccs1`, for which the inhibition came to 54%.
As to `CC(C)C[C@H](NC(=O)OCc1ccccc1)C(=O)N[C@@H](CC(C)C)C(=O)c1nccn1Cc1ccccc1`, the inhibition worked out at 39%.

A word on the inhibition: it is the relative decrease from the control value, in per cent.
